Test results as given in US20230271964A1, “5-AMINO-8-(4-PYRIDYL)-[1,2,4]TRIAZOLO[4,3-C]PYRIMIDIN-3-ONE COMPOUNDS FOR USE AGAINST CANCER” (ASTRAZENECA AB, priority 2020, published 2023).

Key:
[1] = biological target: human adenosine A1 receptor (Homo sapiens (Human), UniProt P30542); experiment: Adenosine receptor inhibition binding assay, [3H]DPCPX, A1 receptor membranes; details: 1 nM [3H]DPCPX, 25° C., 1 h, Ki from IC50 by Cheng-Prusoff
Procedure, shortened: (§1)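 Membranes from BacMam-transduced HEK293 cells (0.2 µg A2A; 1.4 µg A1) incubated 1 h at 25 °C with 1 nM radioligand; A2A in 50 mM Tris-HCl pH 7.4, A1 buffer adds 100 mM NaCl, 10 mM MgCl2. Nonspecific binding: 1 µM CGS 15943 (A2A) or 1 µM DPCPX (A1). Filtration, scintillation counting; IC50 converted to Ki via Cheng-Prusoff.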

[2] = biological target: human adenosine A2A receptor (Homo sapiens (Human), UniProt P29274); experiment: Adenosine receptor inhibition binding assay, [3H]ZM241385, HEK293 A2A receptor membranes; details: 1 nM [3H]ZM241385, HEK293-hA2A membranes, 25° C., 1 h, Ki from IC50 by Cheng-Prusoff
Procedure, shortened: as §1

[3] = biological target: human CB-1 cannabinoid receptor (Homo sapiens (Human), UniProt P21554); experiment: CB-1 receptor radioligand binding assay, [3H]CP 55940, transfected CHO cell membranes; details: 0.5 nM [3H]CP 55940, CHO cell membranes, 120 min at 37° C.
Description: Nonspecific binding is determined in the presence of 10 µM WIN 55212-2.
Following incubation, the samples are filtered rapidly under vacuum through glass fiber filters (GF/B, Packard) presoaked with 0.3% PEI and rinsed several times with an ice-cold buffer containing 50 mM Tris-HCl (pH 7.4) and 0.5% BSA using a 96-sample cell harvester (Unifilter, Packard). The filters are dried then counted for radioactivity in a scintillation counter (Topcount, Packard) using a scintillation cocktail (Microscint 0, Packard).
The standard reference compound is CP 55940 which is tested in each experiment at several concentrations to obtain a competition curve from which its IC50 is calculated.

[4] = biological target: human CB1 receptor (Homo sapiens (Human), UniProt P21554); experiment: CB1 receptor antagonism, agonist-induced cAMP modulation (HTRF) in transfected CHO cells; format: cell-based; details: read-out: Antag IC50
Description: Receptor antagonism: Evaluation of the antagonist activity of compounds at the human CB1 receptor expressed in transfected CHO cells, determined by measuring their effects on agonist-induced cAMP modulation using the HTRF detection method.
Thereafter, the reference agonist CP 55940 and the adenylyl cyclase activator NKH 477 are added at respective final concentrations of 3 nM and 3 µM.
For basal control measurements, CP 55940 is omitted from the wells containing 3 µM AM 281.
Following 20 min incubation at 37° C., the cells are lysed and the fluorescence acceptor (D2-labeled cAMP) and fluorescence donor (anti-cAMP antibody labeled with europium cryptate) are added.
After 60 min at room temperature, the fluorescence transfer is measured at λex=337 nm and λem=620 and 665 nm using a microplate reader (Rubystar, BMG). The cAMP concentration is determined by dividing the signal measured at 665 nm by that measured at 620 nm (ratio).
The standard reference antagonist is AM 281, which is tested in each experiment at several concentrations to generate a concentration-response curve from which its IC50 value is calculated.

human adenosine A2A receptor, sequence (P29274 whole entry): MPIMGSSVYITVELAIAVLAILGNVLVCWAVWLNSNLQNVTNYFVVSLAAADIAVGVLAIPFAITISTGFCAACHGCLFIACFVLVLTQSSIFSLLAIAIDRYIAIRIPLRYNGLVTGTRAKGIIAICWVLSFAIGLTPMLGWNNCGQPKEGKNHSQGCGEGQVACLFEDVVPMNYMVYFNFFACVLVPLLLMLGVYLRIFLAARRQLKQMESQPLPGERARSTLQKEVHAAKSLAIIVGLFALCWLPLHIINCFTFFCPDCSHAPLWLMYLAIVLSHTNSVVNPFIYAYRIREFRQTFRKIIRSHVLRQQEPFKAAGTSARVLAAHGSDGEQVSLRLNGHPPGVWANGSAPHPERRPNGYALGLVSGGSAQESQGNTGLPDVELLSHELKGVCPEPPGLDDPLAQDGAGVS
human adenosine A1 receptor, sequence (P30542 whole entry): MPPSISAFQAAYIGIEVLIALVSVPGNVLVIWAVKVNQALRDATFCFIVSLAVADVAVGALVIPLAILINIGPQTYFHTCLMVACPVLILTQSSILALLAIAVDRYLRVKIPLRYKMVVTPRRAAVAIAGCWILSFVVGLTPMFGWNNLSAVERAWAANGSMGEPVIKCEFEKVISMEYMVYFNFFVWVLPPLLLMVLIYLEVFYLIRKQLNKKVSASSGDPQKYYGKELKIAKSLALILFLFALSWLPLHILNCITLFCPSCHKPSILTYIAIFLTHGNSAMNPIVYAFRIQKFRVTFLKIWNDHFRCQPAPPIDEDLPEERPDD
human CB1 receptor, sequence (P21554 whole entry): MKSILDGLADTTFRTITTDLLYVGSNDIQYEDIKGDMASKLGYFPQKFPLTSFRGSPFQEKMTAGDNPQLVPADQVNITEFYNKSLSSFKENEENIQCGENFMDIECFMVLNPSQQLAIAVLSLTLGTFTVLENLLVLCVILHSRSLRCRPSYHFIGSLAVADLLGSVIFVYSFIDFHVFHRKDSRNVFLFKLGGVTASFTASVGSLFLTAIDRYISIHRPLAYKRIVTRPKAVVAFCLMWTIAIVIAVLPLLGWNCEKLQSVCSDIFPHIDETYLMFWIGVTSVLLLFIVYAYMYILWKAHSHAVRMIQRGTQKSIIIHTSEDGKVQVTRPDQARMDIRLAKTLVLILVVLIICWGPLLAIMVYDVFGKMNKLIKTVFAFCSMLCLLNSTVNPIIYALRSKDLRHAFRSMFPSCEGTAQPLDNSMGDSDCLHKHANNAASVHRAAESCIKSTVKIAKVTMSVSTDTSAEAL
human CB-1 cannabinoid receptor, sequence (P21554 whole entry): as above

Structure (SMILES)	A1 pKi [1]	A2A pKi [2]	Ki [3] [µM]	IC50 [4] [µM]	Ki ([1]; read-out: A1 pKi (converted)) [µM]	Ki ([2]; read-out: A2A pKi (converted)) [µM]
Cc1cc(-c2c(-c3ccccc3)nc(N)n3c(=O)n(Cc4cc(C)on4)nc23)cc(C)n1 [Example 1-14, 5-amino-8-(2,6-dimethyl-4-pyridyl)-2-[(5-methylisoxazol-3-yl)methyl]-7-phenyl-[1,2,4]triazolo[4,3-c]pyrimidin-3-one]	6.6	9.2	50.5	29.2		
Cc1cc(-c2c(-c3ccccc3)nc(N)n3c(=O)n(Cc4ncoc4C)nc23)cc(C)n1 [Example 1-22, 5-amino-8-(2,6-dimethyl-4-pyridyl)-2-[(5-methyloxazol-4-yl)methyl]-7-phenyl-[1,2,4]triazolo[4,3-c]pyrimidin-3-one]	7.4	10.1	29.6	> 100		
Cc1cc(-c2c(-c3ccc(F)cc3)nc(N)n3c(=O)n(Cc4ncoc4C)nc23)cc(C)n1 [Example 1-31, 5-amino-8-(2,6-dimethyl-4-pyridyl)-7-(4-fluorophenyl)-2-[(5-methyloxazol-4-yl)methyl]-[1,2,4]triazolo[4,3-c]pyrimidin-3-one]	7.0	9.6	26.1	12.1		
Cc1cc(-c2c(-c3ccccc3)nc(N)n3c(=O)n(Cc4cc(C)on4)nc23)cc(CO)n1 [Example 1-43, 5-amino-8-[2-(hydroxymethyl)-6-methyl-4-pyridyl]-2-[(5-methylisoxazol-3-yl)methyl]-7-phenyl-[1,2,4]triazolo[4,3-c]pyrimidin-3-one]	6.7	9.1	86.9	> 100		
Cc1cc(-c2c(-c3ccc(F)cc3)nc(N)n3c(=O)n(Cc4nccn4C)nc23)cc(CO)n1 [Example 1-50, 5-amino-7-(4-fluorophenyl)-8-[2-(hydroxymethyl)-6-methyl-4-pyridyl]-2-[(1-methylimidazol-2-yl)methyl]-[1,2,4]triazolo[4,3-c]pyrimidin-3-one]	6.5	9.5	86.1	> 100		
Cc1cc(-c2c(-c3ccc(F)cc3)nc(N)n3c(=O)n(Cc4ncoc4C)nc23)cc(CO)n1 [Example 1-51, 5-amino-7-(4-fluorophenyl)-8-[2-(hydroxymethyl)-6-methyl-4-pyridyl]-2-[(5-methyloxazol-4-yl)methyl]-[1,2,4]triazolo[4,3-c]pyrimidin-3-one]	6.4	9.4	80.3	> 100		
COc1cc(-c2c(-c3ccccc3)nc(N)n3c(=O)n(Cc4ncoc4C)nc23)cc(CO)n1 [Example 1-60, 5-amino-8-[2-(hydroxymethyl)-6-methoxy-4-pyridyl]-2-[(5-methyloxazol-4-yl)methyl]-7-phenyl-[1,2,4]triazolo[4,3-c]pyrimidin-3-one]	6.8	9.9	66.7	> 100		
COc1cc(-c2c(-c3ccc(F)cc3)nc(N)n3c(=O)n(Cc4ncoc4C)nc23)cc(CO)n1 [Example 1-64, 5-amino-7-(4-fluorophenyl)-8-[2-(hydroxymethyl)-6-methoxy-4-pyridyl]-2-[(5-methyloxazol-4-yl)methyl]-[1,2,4]triazolo[4,3-c]pyrimidin-3-one]	6.5	9.6	40.8	> 100		
Cc1ocnc1Cn1nc2c(-c3cc(CO)nc(C(F)(F)F)c3)c(-c3ccccc3)nc(N)n2c1=O [Example 1-66, 5-amino-8-[2-(hydroxymethyl)-6-(trifluoromethyl)-4-pyridyl]-2-[(5-methyloxazol-4-yl)methyl]-7-phenyl-[1,2,4]triazolo[4,3-c]pyrimidin-3-one]	7.5	9.7		> 100		
Cn1ccnc1Cn1nc2c(-c3cc(CO)nc(C(F)(F)F)c3)c(-c3ccccc3)nc(N)n2c1=O [Example 1-67, 5-amino-8-[2-(hydroxymethyl)-6-(trifluoromethyl)-4-pyridyl]-2-[(1-methylimidazol-2-yl)methyl]-7-phenyl-[1,2,4]triazolo[4,3-c]pyrimidin-3-one]	8.0	10.0		> 100		

Next, values leading:

A1 pKi [1]	A2A pKi [2]	Ki [3] [µM]	IC50 [4] [µM]	Ki ([1]; read-out: A1 pKi (converted)) [µM]	Ki ([2]; read-out: A2A pKi (converted)) [µM]	Structure (SMILES)
		36.4	35.8	0.1	0.00316	Cc1cc(-c2c(-c3ccccc3)nc(N)n3c(=O)n(C[C@H]4CC(F)(F)CN4C)nc23)cc(C)n1 [Example 2-14, 5-amino-2-[[(2R)-4,4-difluoro-1-methyl-pyrrolidin-2-yl]methyl]-8-(2,6-dimethyl-4-pyridyl)-7-phenyl-[1,2,4]triazolo[4,3-c]pyrimidin-3-one]
5.7	7.5		> 100			Cc1cc(-c2c(-c3ccccc3)nc(N)n3c(=O)n(C(CN)C4CCOC4)nc23)cc(C)n1 (centres unmarked) [Example 2-15, 5-amino-2-(2-amino-1-tetrahydrofuran-3-yl-ethyl)-8-(2,6-dimethyl-4-pyridyl)-7-phenyl-[1,2,4]triazolo[4,3-c]pyrimidin-3-one]
6.5	9.1		> 100			Cc1cc(-c2c(-c3ccccc3)nc(N)n3c(=O)n(C[C@@H]4CCCO4)nc23)cc(CO)n1 [Example 2-28, 5-amino-8-[2-(hydroxymethyl)-6-methyl-4-pyridyl]-7-phenyl-2-[[(2S)-tetrahydrofuran-2-yl]methyl]-[1,2,4]triazolo[4,3-c]pyrimidin-3-one]
6.4	9.3		> 100			Cc1cc(-c2c(-c3ccccc3)nc(N)n3c(=O)n(C[C@H]4CCCO4)nc23)cc(CO)n1 [Example 2-29, 5-amino-8-[2-(hydroxymethyl)-6-methyl-4-pyridyl]-7-phenyl-2-[[(2R)-tetrahydrofuran-2-yl]methyl]-[1,2,4]triazolo[4,3-c]pyrimidin-3-one]
6.6	9.6		> 100			Nc1nc(-c2ccccc2)c(-c2cc(Cl)nc(CO)c2)c2nn(C[C@H]3CCCO3)c(=O)n12 [Example 2-32, 5-amino-8-[2-chloro-6-(hydroxymethyl)-4-pyridyl]-7-phenyl-2-[[(2R)-tetrahydrofuran-2-yl]methyl]-[1,2,4]triazolo[4,3-c]pyrimidin-3-one]
5.9	9.2		> 100			COc1cc(-c2c(-c3ccccc3)nc(N)n3c(=O)n(C[C@H]4CCCO4)nc23)cc(CO)n1 [Example 2-35, 5-amino-8-[2-(hydroxymethyl)-6-methoxy-4-pyridyl]-7-phenyl-2-[[(2R)-tetrahydrofuran-2-yl]methyl]-[1,2,4]triazolo[4,3-c]pyrimidin-3-one]
6.3	8.9		> 100			Nc1nc(-c2ccccc2)c(-c2cc(CO)nc(C(F)(F)F)c2)c2nn(C[C@H]3CCCO3)c(=O)n12 [Example 2-38, 5-amino-8-[2-(hydroxymethyl)-6-(trifluoromethyl)-4-pyridyl]-7-phenyl-2-[[(2R)-tetrahydrofuran-2-yl]methyl]-[1,2,4]triazolo[4,3-c]pyrimidin-3-one]
7.6	8.9	29.2	10.1			Cc1cc(-c2c(-c3ccccc3)nc(N)n3c(=O)n(CCN4CCCC4c4cccs4)nc23)cc(C)n1 (centres unmarked) [Example 3-1, 5-amino-8-(2,6-dimethyl-4-pyridyl)-7-phenyl-2-[2-[2-(2-thienyl)pyrrolidin-1-yl]ethyl]-[1,2,4]triazolo[4,3-c]pyrimidin-3-one]
6.3	8.4	76.4	> 100			Cc1cc(-c2c(-c3ccccc3)nc(N)n3c(=O)n(CC4CCCN4Cc4ccccc4CN)nc23)cc(C)n1 (centres unmarked) [Example 3-4, 5-amino-2-[[1-[[2-(aminomethyl)phenyl]methyl]pyrrolidin-2-yl]methyl]-8-(2,6-dimethyl-4-pyridyl)-7-phenyl-[1,2,4]triazolo[4,3-c]pyrimidin-3-one]
